Results taken from patent US20050222055A1 (priority 2002, published 2005).

Key:
23S rRNA = experiment: Bond constant by competitive luminescence anisotropy (CRP probe displacement), 23S rRNA; settings: read-out: binding force (KD) against 23S RNA; luminescence anisotropy competition with CRP, 20° C., HEPES pH 7.5; read-out: binding force (KD) against 32S RNA
Experimental: (§1) A sense DNA of 16S rRNA (sequence listing 1) and an antisense DNA of 16S rRNA (sequence listing 2); a sense DNA of RRE RNA (sequence listing 3) and an antisense DNA of RRE RNA (sequence listing 4); and a sense DNA of 23S RNA (sequence listing 5) and an antisense DNA of 23S RNA (sequence listing 6) was prepared according to the present invention.
(§2) Paricularly, the two DNAs comprising sense and antisense (2.5 nanomole, respectively), 5× buffer solution (200 mM Tris-HCl, 30 mM MgCl2, 10 mM spermidine, 50 mM NaCl, pH 7.9; 20 μl), 100 mM DL-dithiotheitol (DTT; 20 μl), four nucleotide tri phosphate mixture (2.5 mM, 20 μl), T7 RNA polymerase (50 units/mL; 1 μl) and diluted water (34 μl) were mixed and cultured at 37° C. for 2 hours. And then 1 unit/ml of Rnase-free RQ1 Dnase was added to the mixture and cultured at 37° C. for 10 minutes. 100 μl of a PCI mixture solution (phenol:chloroform:[…]=25:24:1) was added to the obtained mixture, mixed at room temperature for 5 minutes and then centrifuged at 1400 rpm for 10 minutes. […]
(§3) The paromomycin bonded with tetramethylrhodamine (hereinafter referred to as “[…]”) is used as a luminescence fluorescent probe. The luminescence anisotropy is measured by establishing a thermostat of 20° C. at the Perkin-Elmer LS-50B luminescence spectroscope. The luminescence absorptance of CRP is 510 nm and its luminescence fluorescent is observed at 550 nm. […]

RRE RNA = experiment: Bond constant by competitive luminescence anisotropy (CRP probe displacement), RRE RNA; settings: luminescence anisotropy competition with CRP, 20° C., HEPES pH 7.5; read-out: binding force (KD) against RRE RNA
Experimental: as §1, §2, §3

16S rRNA = experiment: Bond constant by competitive luminescence anisotropy (CRP probe displacement), 16S rRNA; settings: luminescence anisotropy competition with CRP, 20° C., HEPES pH 7.5; read-out: binding force (KD) against 16s rRNA
Experimental: as §1, §2, §3

**Q.** Neomycin was tested. Which Kd (23S rRNA) did it give?
**A.** > 2000 nM

**Q.** What about the Kd (RRE RNA) of the same substance?
**A.** 180 nM

**Q.** And the Kd (16S rRNA)?
**A.** > 2000 nM
